Assay results from patent publication US5091524A, “Glycosidase inhibitor salbostatin, process for its preparation, and its use” (Hoechst Aktiengesellschaft, priority 1988, dated 1992).

Target: T1, trehalase (Sigma No. T 8778) (Sus scrofa, UniProt I3LIR5)
T1 construct: purchased Sigma T 8778
T1 sequence (I3LIR5 24-583): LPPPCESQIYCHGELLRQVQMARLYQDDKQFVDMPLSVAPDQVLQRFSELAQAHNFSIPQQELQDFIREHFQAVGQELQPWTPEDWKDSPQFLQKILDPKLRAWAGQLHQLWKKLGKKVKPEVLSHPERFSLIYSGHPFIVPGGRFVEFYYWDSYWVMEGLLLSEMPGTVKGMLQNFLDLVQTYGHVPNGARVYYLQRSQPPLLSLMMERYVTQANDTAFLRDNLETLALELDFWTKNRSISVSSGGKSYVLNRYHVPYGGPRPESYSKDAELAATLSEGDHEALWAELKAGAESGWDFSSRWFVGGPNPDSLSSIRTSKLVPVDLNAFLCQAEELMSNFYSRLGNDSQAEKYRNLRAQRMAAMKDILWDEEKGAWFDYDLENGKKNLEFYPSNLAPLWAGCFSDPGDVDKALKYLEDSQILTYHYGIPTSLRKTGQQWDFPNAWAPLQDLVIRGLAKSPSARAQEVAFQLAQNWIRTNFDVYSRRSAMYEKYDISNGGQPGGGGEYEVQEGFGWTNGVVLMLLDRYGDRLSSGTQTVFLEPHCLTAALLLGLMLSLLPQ
Assay: Trehalase assay (colorimetric determination of D-glucose liberated from trehalose)
Assay type: biochemical
Experimental: The trehalase assay is based on the colorimetric determination of D-glucose, which is liberated from trehalose by the action of trehalase.
Before the assay was started, trehalase (Sigma No. T 8778) was diluted with 20 mM phosphate buffer pH 6.5 in a ratio of 1 1000. Trehalose was dissolved in a concentration of 0.lM in 0.lM 2-(n-morpholino)ethanesulfonic acid.
At the beginning of the assay, 100 μl each of H2 O, trehalose and trehalase were combined and the mixture was incubated at 37° C. for 30 minutes. The reaction was stopped by heating the batch to 100° C. The control batch was stopped immediately (0 minutes) by boiling. Where appropriate, salbostatin was added to the reaction batches in various concentrations in place of water.
The glucose which was liberated from the trehalose was determined colorimetrically. To this end, the glucose was reacted by glucose oxidase and the H2 O2 which formed was used for oxidizing o-dianisidine.The oxidized odianisidine was determined using a photometer. All the abovementioned reagents for glucose determination came from the glucose kit manufactured by Sigma (Sigma Chemie GmbH, Deisenhofen, Germany; No. 510-DA), and the assay was carried out in accordance with the enclosed protocol.

OCC1=C[C@H](N[C@H]2CO[C@H](CO)[C@@H](O)[C@@H]2O)[C@H](O)[C@@H](O)[C@@H]1O [salbostatin] was tested, and the Ki (competitive with regard to trehalose, read-out: inhibitor constant Ki) was 180 nM, the IC50 (substrate trehalose, 37° C., 30 minutes, read-out: salbostatin concentration showing an enzyme inhibition of 50%) was 10 to 100 nM and the “type of inhibition (enzyme kinetics)” value (with regard to trehalose) was “competitive trehalase inhibitor”.
